The values that follow come from EP4741383A1, “COMPOUND AND USE THEREOF AS ANTI-CANCER DRUG” (Tyligand Bioscience (Shanghai) Limited, priority 2023, dated 2025).

In assay [1] the target is T1, SHP2 enzyme (catalytic domain, amino acid sequence 224-528) (Homo sapiens, UniProt Q06124).
T1 construct: purchased GenScript
T1 sequence (Q06124 224-528): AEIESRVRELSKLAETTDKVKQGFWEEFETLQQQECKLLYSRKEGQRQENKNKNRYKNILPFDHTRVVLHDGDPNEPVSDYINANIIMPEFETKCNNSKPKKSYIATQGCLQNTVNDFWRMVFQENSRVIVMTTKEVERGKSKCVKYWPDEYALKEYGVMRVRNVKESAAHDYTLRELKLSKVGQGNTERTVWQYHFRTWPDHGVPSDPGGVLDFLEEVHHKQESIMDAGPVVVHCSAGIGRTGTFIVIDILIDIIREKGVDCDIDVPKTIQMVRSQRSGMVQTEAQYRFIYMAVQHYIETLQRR
Description: SHP2 enzyme inhibition assay (DiFMUP substrate, fluorescence). Format: biochemical. Particulars: for IC50: SHP2 catalytic domain, DiFMUP substrate, 30 min pre-incubation, read-out: S HP2 I C50; for SHP2 IC50 times lower than control compound 11a-1: relative to 11a-1, IC50 = 0.108 µM. The method in brief: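 SHP2 catalytic domain (aa 224-528) preincubated 30 min at room temperature with compounds (10-point 3-fold series) in HEPES pH 7.2 buffer with NaCl, EDTA, DTT, BSA, Brij35. DiFMUP from 50 µM working solution added, 5 min reaction; fluorescence 340/450 nm; IC50 from nonlinear dose-response fit.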

The test system of assay [2] is KYSE520. Description: CellTiter-Glo cell proliferation inhibition, KYSE520. The format is cell-based, human. Particulars: for IC50: Homo sapiens, KYSE-520, KYSE520 cells, 120 hours, CellTiter-Glo. (ATP-based viability assays read luminescence as a measure of living cells.)

Take `O=C(Nc1ccc(-c2cc3cc(F)c(-c4nnn[nH]4)cc3n2C2CCC2)cc1)C(=O)Nc1ccc(N2CCC3(CCCOC3)C2)cc1` (centres unmarked) [Example 62]: the IC50 in assay [1] was determined as 65 nM; in assay [2], 0.193 µM.
As for `O=C(Nc1ccc(-c2cc3cc(F)c(-c4nnn[nH]4)cc3n2C2CCC2)cc1)C(=O)Nc1ccc(N2CCC(CO)C2)cc1` (centres unmarked) [Example 12], the IC50 in assay [1] amounted to 48 nM; in assay [2], 0.121 µM.
Regarding `COC1CC(n2c(-c3ccc(NC(=O)C(=O)Nc4ccc(N5CCC6(CCC(O)C6)CC5)cc4)cc3)cc3cc(F)c(-c4nnn[nH]4)cc32)C1` (centres unmarked) [Example 103], the values for the IC50 in assay [1] and in assay [2] were 141 nM and 0.042 µM, respectively.
The matching figures for `Cn1cc(-c2ccc(NC(=O)C(=O)Nc3ccc(-c4cc5cc(F)c(-c6nnc(C(F)(F)F)[nH]6)cc5n4C4CCC4)cc3)cc2)cn1` [Example 124]: 716 nM and 0.661 µM.
On the same counts, the results for `O=C(Nc1ccc(-c2cc3cc(F)c(-c4nnn[nH]4)cc3n2C2CCC2)cc1)C(=O)Nc1ccc(N2CC3CC(O)CC3C2)cc1` (centres unmarked) [Example 116] are 63 nM and 0.092 µM.
Take `O=C(Nc1ccc(-c2cc3cc(F)c(-c4nnn[nH]4)cc3n2C2CCC2)cc1)C(=O)Nc1ccc(N2CCC3(CCC(O)CC3)CC2)cc1` [Example 108]: in assay [1], the IC50 was determined as 30 nM and the “SHP2 IC50 times lower than control compound 11a-1” value is recorded as 3-4 times. In assay [2], this molecule registered an IC50 of 0.167 µM.
As for `O=C(Nc1ccc(-c2cc3cc(F)c(-c4nnn[nH]4)cc3n2C2CCC2)cc1)C(=O)Nc1ccc(N2CC3COCC3C2)cc1` (centres unmarked) [Example 114], the IC50 in assay [1] is 72 nM; in assay [2], 0.118 µM.
Consider `CC(C)(O)C1CCN(c2ccc(NC(=O)C(=O)Nc3ccc(-c4cc5cc(F)c(-c6nnn[nH]6)cc5n4C4CCC4)cc3)cc2)CC1` [Example 33], for which the IC50 in assay [1] was found to be 41 nM; in assay [2], 0.042 µM.
As for `O=C(Nc1ccc(-c2ccsc2)cc1)C(=O)Nc1ccc(-c2cc3ccc(-c4nnn[nH]4)cc3n2C2CCC2)cc1` [Example 122], the IC50 came to 66 nM in assay [1] and 4.36 µM in assay [2].
On the same counts, the results for `CC1(CO)CCN(c2ccc(NC(=O)C(=O)Nc3ccc(-c4cc5cc(F)c(-c6nnn[nH]6)cc5n4C4CCC4)cc3)cc2)C1` (centres unmarked) [Example 16] are 48 nM and 0.151 µM.
The matching figures for `CC1(O)CCC2(CCN(c3ccc(NC(=O)C(=O)Nc4ccc(-c5cc6cc(F)c(-c7nnn[nH]7)cc6n5C5CCC5)cc4)cc3)CC2)CC1` [Example 110]: 77 nM and 0.109 µM.
The matching figures for `O=C(Nc1ccc(-c2cc3cc(F)c(-c4nnn[nH]4)cc3n2C2CCC2)cc1)C(=O)Nc1ccc(N2CC3(CCCOC3)C2)cc1` [Example 55]: 45 nM and 0.108 µM.
In the case of `CC1(O)CC2(CCN(c3ccc(NC(=O)C(=O)Nc4ccc(-c5cc6cc(F)c(-c7nnn[nH]7)cc6n5C5(C)CCC5)cc4)cc3)CC2)C1` [Example 95], the IC50 amounted to 61 nM in assay [1] and 0.113 µM in assay [2].
As for `O=C(Nc1ccc(-c2cc3cc(F)c(-c4nnn[nH]4)cc3n2C2CCC2)cc1)C(=O)Nc1ccc(N2CCC3(COC3)C2)cc1` [Example 59], the results for the IC50 in assay [1] and in assay [2] were 62 nM and 0.119 µM, respectively.
On to `CC(O)C1CCN(c2ccc(NC(=O)C(=O)Nc3ccc(-c4cc5cc(F)c(-c6nnn[nH]6)cc5n4C4CCC4)cc3)cc2)CC1` (centres unmarked) [Example 29], for which the IC50 in assay [1] came out at 48 nM; in assay [2] it was 0.076 µM.
On to `O=C(Nc1ccc(-c2cc3cc(F)c(-c4nnn[nH]4)cc3n2C2CCC2)cc1)C(=O)Nc1ccc(N2CCC3(CCOC3)CC2)cc1` [Example 67], for which, in assay [1], the IC50 was determined as 34 nM and the “SHP2 IC50 times lower than control compound 11a-1” value is listed as 3-4 times. This molecule also had an IC50 in assay [2] of 0.086 µM.
Turning to `O=C(Nc1ccc(-c2ccsc2)cc1)C(=O)Nc1ccc(-c2cc3ccc(-c4nnn[nH]4)nc3n2C2CCC2)cc1` [Example 129], the IC50 in assay [1] stood at 59 nM; in assay [2], 2.85 µM.
On the same counts, the results for `O=C(Nc1ccc(-c2cc3cc(F)c(-c4nnn[nH]4)cc3n2C2CCC2)cc1)C(=O)Nc1ccc(N2CCC3(CCC(O)C3)CC2)cc1` (centres unmarked) [Example 100] are 48 nM and 0.057 µM.
Consider `CC1(n2c(-c3ccc(NC(=O)C(=O)Nc4ccc(N5CCC6(CCOCC6)CC5)cc4)cc3)cc3cc(F)c(-c4nnn[nH]4)cc32)CCC1` [Example 77], for which the results for the IC50 in assay [1] and in assay [2] were 20 nM and 0.049 µM, respectively. In addition, in assay [1], the “SHP2 IC50 times lower than control compound 11a-1” value is on record as 3-4 times.
For `CC1(n2c(-c3ccc(NC(=O)C(=O)Nc4ccc(N5CCC6(CCC(O)CC6)CC5)cc4)cc3)cc3cc(F)c(-c4nnn[nH]4)cc32)CCC1` [Example 109], the results for the IC50 in assay [1] and in assay [2] were 61 nM and 0.107 µM, respectively.
On to `O=C(Nc1ccc(-c2cc3cc(F)c(-c4nnn[nH]4)cc3n2C2CCC2)cc1)C(=O)Nc1ccc(N2CCC3(CC(O)C3)C2)cc1` (centres unmarked) [Example 89], for which the IC50 in assay [1] came out at 157 nM; in assay [2], 0.062 µM.
On the same counts, the results for `O=C(Nc1ccc(-c2csc(CO)c2)cc1)C(=O)Nc1ccc(-c2cc3cc(F)c(-c4nnn[nH]4)cc3n2C2CCC2)cc1` [Example 1] are 66 nM and 0.095 µM.
On the same counts, the results for `CC1(O)CCC2(CC1)CN(c1ccc(NC(=O)C(=O)Nc3ccc(-c4cc5cc(F)c(-c6nnn[nH]6)cc5n4C4CCC4)cc3)cc1)C2` [Example 83] are 58 nM and 0.163 µM.
The matching figures for `Cn1cc(-c2ccc(NC(=O)C(=O)Nc3ccc(-c4cc5cc(F)c(-c6noc(=O)[nH]6)cc5n4C4CCC4)cc3)cc2)cn1` [Example 123]: 141 nM and 0.243 µM.
With `O=C(Nc1ccc(-c2cc3cc(F)c(-c4nnn[nH]4)cc3n2C2CC2)cc1)C(=O)Nc1ccc(N2CCC3(CCOC3)CC2)cc1` [Example 69], the IC50 was found to be 46 nM in assay [1] and 0.189 µM in assay [2].
The matching figures for `N#CCc1cc(-c2ccc(NC(=O)C(=O)Nc3ccc(-c4cc5cc(F)c(-c6nnn[nH]6)cc5n4C4CCC4)cc3)cc2)cs1` [Example 2]: 64 nM and 0.141 µM.
On the same counts, the results for `CC1(O)CC2CN(c3ccc(NC(=O)C(=O)Nc4ccc(-c5cc6cc(F)c(-c7nnn[nH]7)cc6n5C5(C)CCC5)cc4)cc3)CC2C1` (centres unmarked) [Example 118] are 45 nM and 0.116 µM.
On the same counts, the results for `O=C(Nc1ccc(-c2ccsc2)cc1)C(=O)Nc1ccc(-c2sc3cc(F)c(-c4nnn[nH]4)cc3c2C2CCC2)cc1` [Example 133] are 69 nM and 0.688 µM.
In the case of `O=C(Nc1ccc(-c2cc3cc(F)c(-c4nnn[nH]4)cc3n2C2CCC2)cc1)C(=O)Nc1ccc(N2CCC(CCO)C2)cc1` (centres unmarked) [Example 14], the IC50 in assay [1] was 45 nM; in assay [2], 0.113 µM.
The matching figures for `O=C(Nc1ccc(-c2cc3cc(F)c(-c4nnn[nH]4)cc3n2C2CCC2)cc1)C(=O)Nc1ccc(N2CCC3(CCOC3)C2)cc1` (centres unmarked) [Example 61]: 41 nM and 0.126 µM.
The matching figures for `CC1(n2c(-c3ccc(NC(=O)C(=O)Nc4ccc(N5CCC6(CCOC6)CC5)cc4)cc3)cc3cc(F)c(-c4nnn[nH]4)cc32)CCC1` [Example 68]: 48 nM and 0.057 µM.
The matching figures for `CC1(O)CCC2(CCN(c3ccc(NC(=O)C(=O)Nc4ccc(-c5cc6cc(F)c(-c7nnn[nH]7)cc6n5C5(C)CCC5)cc4)cc3)CC2)CC1` [Example 111]: 94 nM and 0.105 µM.
On to `CC1(CO)CCN(c2ccc(NC(=O)C(=O)Nc3ccc(-c4cc5cc(F)c(-c6nnn[nH]6)cc5n4C4CCC4)cc3)cc2)CC1` [Example 40], for which the IC50 in assay [1] turned out to be 60 nM; in assay [2] it was 0.168 µM.
Consider `O=C(Nc1ccc(-c2cc3cc(F)c(-c4nnn[nH]4)cc3n2C2CCC2)cc1)C(=O)Nc1ccc(N2CCC(C3COC3)CC2)cc1` [Example 20], for which the IC50 worked out at 27 nM in assay [1] and 0.036 µM in assay [2]. Also, the “SHP2 IC50 times lower than control compound 11a-1” value in assay [1] is reported as 3-4 times. Also, in assay [2] (relative to 11a-1 (1.23 µM)), the “IC50 against KYSE-520 cells, fold lower than 11a-1” value was determined as 34 fold.
As for `O=C(Nc1ccc(-c2cc3cc(F)c(-c4nnn[nH]4)cc3n2C2CCC2)cc1)C(=O)Nc1ccc(N2CCC3(CCC(O)C3)C2)cc1` (centres unmarked) [Example 92], the values for the IC50 in assay [1] and in assay [2] were 51 nM and 0.13 µM, respectively.
The matching figures for `CC1(O)CC2CN(c3ccc(NC(=O)C(=O)Nc4ccc(-c5cc6cc(F)c(-c7nnn[nH]7)cc6n5C5CCC5)cc4)cc3)CC2C1` (centres unmarked) [Example 117]: 71 nM and 0.104 µM.
The matching figures for `O=C(Nc1ccc(-c2ccsc2)cc1)C(=O)Nc1ccc(-c2oc3cc(F)c(-c4nnn[nH]4)cc3c2C2CCC2)cc1` [Example 130]: 25 nM and 0.422 µM.
The matching figures for `CC1(n2c(-c3ccc(NC(=O)C(=O)Nc4ccc(-c5cnn(C6COC6)c5)cc4)cc3)cc3cc(F)c(-c4nnn[nH]4)cc32)CC1` [Example 6]: 73 nM and 0.065 µM.
Take `CC1(n2c(-c3ccc(NC(=O)C(=O)Nc4ccc(-c5cnn(C6CCOCC6)c5)cc4)cc3)cc3cc(F)c(-c4nnn[nH]4)cc32)CC1` [Example 7]: the IC50 in assay [1] was found to be 49 nM; in assay [2], 0.071 µM.
